Assay results: patent publication US10849916B2 (priority 2014, dated 2020)

Experiment: Water (moisture) content by Karl Fischer method
Format: physicochemical
Settings: for Water content tested by KF method: isolated impurity fraction from preparative HPLC
Experimental: 1. Water content: Water content was estimated by karl fischer (KF) method wherein suitable quantity of methanol was taken in the flask and titrated with karl fischer reagent to neutralize the methanol. Then weighed quantity of the sample is added to the flask and titrated to the end point.

Structure (SMILES) | Water content tested by KF method | Water content in the vials (after drying under vacuum in lyophilizer) | Water content of the input cyclophosphamide monohydrate (input drug substance, before drying)
CCOP(=O)(O)OCCCN1CCNCC1 [0.21 RRT, ethyl (3-(piperazin-1-yl)propyl) hydrogen phosphate] | 2.69 % by weight | – | –
CCOCCN(CCCl)P1(=O)NCCCO1 (stereo not shown) [0.75 RRT, 2-((2-chloroethyl)(2-ethoxyethyl)amino)-1,3,2-oxazaphosphinane 2-oxide] | 2.71 % by weight | – | –
O=P1(N(CCCl)CCCl)NCCCO1 (stereo not shown) [Cyclophosphamide, 2-[bis(2-chloroethyl)amino]tetrahydro-2H-1,3,2-oxazaphosphorine 2-oxide monohydrate] | – | approximately 1% | *Water content of the input cyclophosphamide monohydrate is 6.25% w/w.
